# Results published in patent publication US20250346550A1, “METHODS OF MODULATING ENDONUCLEASE G USING RESVERATROL AND ITS DERIVATIVES” (THE REGENTS OF THE UNIVERSITY OF COLORADO A BODY CORPORATE, priority 2022, published 2025).
# Legend:
# [1] = test system: paternal mitochondrial elimination (PME) in C. elegans wild-type (N2) cross-fertilized embryos; experiment: PME fluorescent microscopy assay (MTR-stained paternal mitochondrial clusters), N2 males x N2 hermaphrodites; format: in vivo; conditions: for effect on PME in the screen: compound 100 μM, 64-cell stage embryos (FIG. 1a)
# Experimental: FIG. 1. […] The numbers of MTR-stained paternal mitochondrial clusters in 64-cell cross-fertilized embryos from mating of MTR-stained N2 males with N2 hermaphrodites in the presence of the indicated compounds (100 μM) were scored. n≥15 embryos for each compound. b, d-g, Quantification of MTR-stained paternal mitochondrial clusters in 64-cell stage embryos (b, d-f) or in embryos at the indicated stage (g) from the cross between MTR-stained N2 males and N2 hermaphrodites, in the presence of 0.25% ethanol (Mock) or 50 μM of the indicated compound. In each experiment, n>40 embryos (b,d,e), n=20 embryos (f), and n≥10 embryos (g) were scored, respectively. […] Data are mean±s.e.m. **P<0.01, ***P<0.001; n.s., not significant, two-sided, unpaired t-test.
# FIG. 7. Effects of different dosages of resveratrol isomers on PME. a, b, The effects of different dosages of cis-resveratrol (a) and trans-resveratrol (b) on PME. The numbers of MTR-stained paternal mitochondrial clusters in 64-cell embryos (a) or 16-cell embryos (b) from mating of MTR-stained N2 males with N2 hermaphrodites in the presence of the indicated concentrations of resveratrol isomers were scored. […] N2 hermaphrodites and MTR-stained uaDf5/+ males were mated as indicated in the presence of 0.25% ethanol (Mock, d), 50 μM trans-resveratrol (e), or 50 μM cis-resveratrol (f). Males also carried smIs42, an integrated Psur-5sur-5::gfp transgene, which directs GFP expression in all somatic cells in most developmental stages, and was used to track cross progeny. A single cross-fertilized embryo or larva (MTR- or GFP-positive) at the indicated stage was analyzed by PCR. uaDf5/+ and N2 hermaphrodites were controls.
# FIG. 12. […] Quantification of MTR-stained paternal mitochondrial clusters at the indicated embryonic stages from the cross between MTR-stained N2 males and N2 hermaphrodites, in the presence of 0.25% ethanol (Mock) or 50 μM of the indicated compound. In each experiment, n≥10 embryos embryos. Data are mean±s.e.m. **P<0.01, ***P<0.001; n.s., not significant, two-sided, unpaired t-test.
# Following fertilization, paternal mitochondria are rapidly depolarized and damaged in fertilized eggs, which could generate and release reactive oxygen species (ROS) that affect PME and embryo development. We thus screened twelve small molecules derived from natural products that have been used as antioxidants for the potential activity in modulating PME (FIG. 6a), using a fluorescent microscopy assay. In this assay, C. elegans wild-type (N2) males prestained with Mitotracker Red (MTR), a mitochondrion-specific fluorescent dye, were mated with unstained N2 hermaphrodites in the presence of the compound of interest ([…]) and the cross-fertilized embryos were examined for the presence of MTR-stained paternal mitochondria or mitochondrial clusters.
# [2] = test system: PME defect of cps-6(tm3222) embryos; experiment: PME microscopy assay in cps-6(tm3222) crosses; format: in vivo, C. elegans; conditions: 64-cell embryos, scored as in FIG. 1a (FIG. 6b); DMSO control average of 17 clusters
# From the text: (§1) The numbers of MTR-stained paternal mitochondrial clusters were scored as in FIG. 1a. cps-6(tm3222) and lgg-1(bp523) alleles were used in the assays. Data are mean±s.e.m. n=20 embryos (b) and 15 embryos (c) in each experiment. **P<0.01; ***P<0.001; n.s., not significant, two-sided, unpaired t-test.
# (§2) To investigate how these six compounds might affect PME, the present inventors performed chemical genetic analysis to analyze the PME pathways that might be affected by the compounds. The present inventors first examined whether they might affect the paternal PME pathway mediated by the mitochondrial endonuclease CPS-6, whose activity is inhibited by oxidation and protected by reducing agents.
# [3] = test system: PME defect of lgg-1(bp523) embryos (autophagy pathway); experiment: PME microscopy assay in lgg-1(bp523) crosses; format: in vivo, C. elegans; conditions: FIG. 6c
# From the text: as §1, §2
# CPS-6 = molecular target: T1, CPS-6 (Caenorhabditis elegans, UniProt Q95NM6); experiment: plasmid DNA cleavage assay; format: biochemical, C. elegans; conditions: 20 μM
# T1 construct: Recombinant CPS-6 protein was incubated with the supercoiled plasmid DNA substrate
# T1 sequence (Q95NM6 1-308): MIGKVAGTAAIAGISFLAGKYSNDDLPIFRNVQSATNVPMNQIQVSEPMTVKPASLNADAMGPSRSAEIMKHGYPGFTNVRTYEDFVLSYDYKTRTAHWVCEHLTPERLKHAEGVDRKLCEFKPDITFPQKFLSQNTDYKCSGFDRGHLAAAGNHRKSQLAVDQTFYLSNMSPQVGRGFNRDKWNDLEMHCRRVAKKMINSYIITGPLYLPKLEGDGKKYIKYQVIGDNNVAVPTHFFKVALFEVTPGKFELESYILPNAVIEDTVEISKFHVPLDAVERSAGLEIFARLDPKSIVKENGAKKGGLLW
# Experimental: FIG. 3. Resveratrol isomers target CPS-6 to affect PME. a, b, Both cis-resveratrol and trans-resveratrol act paternally to affect PME. The numbers of MTR-stained paternal mitochondrial clusters in embryos at 64-cell (a) or 16-cell (b) stage from the indicated crosses were scored. N2 males or hermaphrodites were pretreated with 0.25% ethanol (Mock), 50 μM cis-resveratrol (a), or 50 μM trans-resveratrol (b) as indicated before mating. c-g, Quantification of MTR-stained paternal mitochondrial clusters in 64-cell embryos from the indicated crosses treated with 0.25% ethanol (Mock), 50 μM cis-resveratrol, and 50 μM trans-resveratrol, respectively. Alleles used are lgg-1(bp523), cps-6(tm3222) and rad-23(tm2595). Data are mean s.e.m; n≥15 embryos (a) and n≥20 embryos (b, c-g) were scored in each experiment. ***P<0.001; n.s., not significant, two-sided, unpaired t-test. h, Resveratrol isomers enhance or inhibit the nuclease activity of CPS-6 in a plasmid DNA cleavage assay. 10 ng of CPS-6 were incubated with 0.25% ethanol (Mock), 20 μM cis-resveratrol, or 20 μM trans-resveratrol in dark at 4° C. for 1.5 hours, before 1 μg of the pPD49.78 plasmid DNA were added to the reactions. After further incubation at 30° C. for 1 hour, the reactions were resolved on a 1% agarose gel. Three different forms of plasmid DNA are indicated.
# FIG. 11. Stabilized trans-resveratrol enhances the nuclease activity of CPS-6 in a plasmid DNA cleavage assay and is resistant to UV irradiation. 10 ng of CPS-6 were incubated with 0.25% ethanol (Mock), 20 μM locked trans-resveratrol with or without UV irradiation, 20 μM trans-resveratrol with or without UV irradiation, and 20 μM cis-resveratrol with or without UV irradiation, respectively, in dark at 4° C. for 1.5 hours, before 1 μg of the pPD49.78 plasmid DNA were added to the reactions. After further incubation at 30° C. for 1 hour, the reactions were resolved on a 1% agarose gel. Three different forms of plasmid DNA are indicated. Resveratrol isomers or derivative were subjected to UV irradiation for 3 hours.
# Because resveratrol is an antioxidant and the endonuclease activity of CPS-6 is regulated by redox conditions both in vitro and in vivo, we investigated the possibility that resveratrol isomers could directly affect the nuclease activity of CPS-6 using a plasmid DNA cleavage assay. Recombinant CPS-6 protein was incubated with the supercoiled plasmid DNA substrate in the presence or absence of 20 μM trans-resveratrol or cis-resveratrol and the reactions were resolved by an agarose gel. […] Since the nuclease activity of CPS-6 is required for PME, these in vitro results are consistent with the in vivo observations that trans-resveratrol enhances and cis-resveratrol inhibits PME.
# [4] = test system: α-synuclein-induced dopaminergic neuronal death in baIn11 animals; experiment: α-synuclein-based Parkinson's Disease model, DA neuronal death; format: in vivo, C. elegans; conditions: 50 μM, adult day 2 (FIG. 8c)
# From the text: FIG. 8. […] In each experiment, 300 animals were scored to determine the percentage of animals losing at least one dopaminergic neuron in the head. Data are mean±s.e.m. *P<0.05; ***P<0.001, two-sided, unpaired t-test.
# FIG. 13. […] In each experiment, 300 animals were scored to determine the percentage of animals losing at least one of the six dopaminergic neurons in the head. Data are mean±s.e.m. ****P<0.001, two-sided, unpaired t-test.
# In addition to PME and apoptosis, EndoG was previously shown to play an important role in mediating dopaminergic (DA) neuronal death induced by expression of human α-synuclein, which is widely considered to be a major proponent of Parkinson's disease. However, the mechanism by which EndoG mediates α-synuclein-induced neurodegeneration is unclear. In a C. elegans α-synuclein-based Parkinson's Disease model, co-expression of GFP and human α-synuclein in C. elegans dopaminergic neurons under the control of the promoter of the dat-1 gene, which encodes a dopamine transporter, from an integrated transgene baIn11 (Pdat-1::gfp/Pdat-1::α-synuclein) caused DA neuronal death in 30% of adult baIn11 animals (FIG. 8a). The cps-6(tm3222) mutation blocked DA neuronal death in adult baIn11 animals (FIG. 8a), confirming that CPS-6 is important for α-synuclein-induced DA neuronal death.
# EndoG = conditions: stated in discussion, no test described; cited from earlier work
SMILES,effect on PME in the screen [1],"effect on PME defect of cps-6(tm3222) embryos, screen compounds [2]",also measured
"O=C(OC[C@H]1O[C@@H](OC(=O)c2cc(O)c(O)c(OC(=O)c3cc(O)c(O)c(O)c3)c2)[C@H](OC(=O)c2cc(O)c(O)c(OC(=O)c3cc(O)c(O)c(O)c3)c2)[C@@H](OC(=O)c2cc(O)c(O)c(OC(=O)c3cc(O)c(O)c(O)c3)c2)[C@@H]1OC(=O)c1cc(O)c(O)c(OC(=O)c2cc(O)c(O)c(O)c2)c1)c1cc(O)c(O)c(OC(=O)c2cc(O)c(O)c(O)c2)c1 [tannic acid, reference compound]",did not inhibit PME,,
O=c1cc(-c2ccccc2)oc2cc(O)c(O)c(O)c12 [baicalein],,significantly increased the number of paternal mitochondrial clusters,"enhancement of the PME defect in lgg-1 deficient embryos, screen compounds [3]: not"
"N[C@@H](CCC(=O)N[C@@H](CS)C(=O)NCC(=O)O)C(=O)O [glutathione, reference compound]",did not inhibit PME,,
Oc1ccc(/N=C/c2cc(O)cc(O)c2)cc1,,,"dynamics of PME at different embryonic stages ([1]; 50 μM vs 0.25% ethanol mock (FIG. 1g, FIG. 12)): identical activity in promoting PME; effect on CPS-6 nuclease activity (CPS-6; 10 ng CPS-6, pPD49.78 plasmid DNA): similarly enhance the endonuclease activity of CPS-6 like trans-resveratrol; effect on CPS-6 nuclease activity after UV irradiation of the compound (CPS-6; compound UV irradiated for 3 hours (FIG. 11)): did not alter the activity; adult baIn11 animals with neurodegeneration (DA neuronal loss) [4]: 45%"
COc1cc(/C=C/C(=O)CC(=O)/C=C/c2ccc(O)c(OC)c2)ccc1O [curcumin],,significantly increased the number of paternal mitochondrial clusters,
"CC1=C(/C=C/C(C)=C/C=C/C(C)=C/C=C/C=C(C)/C=C/C=C(C)/C=C/C2=C(C)C(=O)[C@@H](O)CC2(C)C)C(C)(C)C[C@H](O)C1=O [astaxanthin, reference compound]",did not inhibit PME,,
O=c1c(O)c(-c2ccc(O)c(O)c2)oc2cc(O)cc(O)c12 [quercetin],,significantly increased the number of paternal mitochondrial clusters,
"Nc1nc2ncc(CNc3ccc(C(=O)N[C@@H](CCC(=O)O)C(=O)O)cc3)nc2c(=O)[nH]1 [folic acid, reference compound]",did not inhibit PME,,
"O=C1O[C@H]([C@@H](O)CO)C(O)=C1O [ascorbic acid, reference compound]",did not inhibit PME,,
"Oc1cc(O)c2c(c1)O[C@H](c1ccc(O)c(O)c1)[C@@H](O)C2 [catechinic acid, reference compound]",did not inhibit PME,,
O=c1cc(-c2ccc(O)cc2)oc2cc(O)cc(O)c12 [apigenin],,significantly increased the number of paternal mitochondrial clusters,"enhancement of the PME defect in lgg-1 deficient embryos, screen compounds [3]: enhanced the PME defect"
CC(CC(=O)C[C@@H](C)[C@H]1CC(=O)[C@@]2(C)C3=C(C(=O)C[C@]12C)[C@@]1(C)CC[C@H](O)C(C)(C)[C@@H]1C[C@@H]3O)C(=O)O (stereo partly shown) [ganoderic acid B],,significantly increased the number of paternal mitochondrial clusters,"enhancement of the PME defect in lgg-1 deficient embryos, screen compounds [3]: enhanced the PME defect"
"C[n+]1ccc(-c2cc[n+](C)cc2)cc1 [paraquat, reference compound]",inhibited PME,,
"Oc1ccc(/C=C/c2cc(O)cc(O)c2)cc1 [resveratrol, 3,5,4′-trihydroxy-trans-stilbene]",,did not affect the PME defect,"enhancement of the PME defect in lgg-1 deficient embryos, screen compounds [3]: enhanced the PME defect; affinity of resveratrol to EndoG (EndoG): nanomolar affinity"
